Test results as given in patent US12076300B2, “Dosage regime with esketamine for treating major depressive disorder” (priority 2019, dated 2024).

Tests used:
[1] = Single dose, randomized, open-label, crossover study in healthy volunteers: pharmacokinetics; conditions: plasma analyte after single dose esketamine hydrochloride 20 mg oral solution; 15 subjects
Excerpt: A randomized, open-label 4-way crossover study in 16 healthy male and female subjects was held wherein said subjects were placed in a randomly assigned order and administered esketamine. Each subject was assigned to 1 of 4 treatment sequences according to a randomization code such that 4 subjects were assigned to each treatment sequence. There was a wash-out period of at least 7 days between dosing periods with doses consisting of either oral or intravenous esketamine hydrochloride. The study consisted of an eligibility screening period of 28 days, 4 study periods involving administration of a single dose of esketamine hydrochloride followed by safety assessments with blood sampling for PK purposes up to 72 hours after study drug administration, discharge at 72 hours after study drug administration and a follow-up visit 7-14 days after the last PK blood sample was taken on Day 4.

[2] = test system: human peripheral blood lymphocytes (HPBL)
Method: The clastogenic potential of esketamine was evaluated in the in vitro mammalian chromosome aberration test using human peripheral blood lymphocytes (HPBL) in both the absence and presence of an induced metabolic activation system (the 9000 g supernatant [S9] microsomal fraction of liver homogenate from rats exposed to Aroclor-1254).
The study was conducted in 2 phases, with a preliminary toxicity test used to determine the appropriate concentrations for the definitive chromosomal aberration assay. Water was used as a negative (vehicle) control. Toxicity (defined as ≥45% reduction in MI relative to the vehicle control) was evaluated at 9 concentrations, ranging from 0.0238 to 238 μg/ml, after exposure of HPBL to esketamine for 20 hours in the absence of S9 activation, or for 4 hours, either in the presence or absence of S9 activation, followed by a 16-hour recovery period.
The definitive chromosome aberration assay evaluated HPBL cells after exposure to esketamine for 20 hours in the absence of S9 activation, or for 4 hours, either in the presence of absence of S9 activation, followed by a 16-hour recovery. Positive controls for chromosomal aberrations in non-activated and S9-activated evaluations, respectively, consisted of mitomycin C (MMC, 0.6 and 0.3 μg/mL for the 4- and 20-hour exposures, respectively) and cyclophosphamide (CP, 2.5, 5, and 7.5 μg/mL). […] Initially, the doses selected for evaluation of chromosomal aberrations were 60, 120, and 238 μg/mL for the non-activated 4- and 20-hour treatment conditions; and 30, 60, and 200 μg/mL for the S9-activated 4-hour treatment condition.

[3] = Repeated dose 28 day toxicokinetics; conditions: males vs females
Method: The objective of the study was to assess the potential toxicity, neurobehavioral effects, and toxicokinetics (TK) of esketamine when administered orally, via gavage, to Sprague Dawley rats for 28 days and to evaluate recovery during a 14-day drug-free period. Fifty male and 50 female rats were randomized into 4 groups (15/sex/Groups 1 and 4; 10/sex/Groups 2 and 3). Esketamine was administered via oral gavage once daily for 28 consecutive days to males at 0 (vehicle control), 6, 10 or 30 mg/kg/day and females at 0 (vehicle control), 2, 10 or 20 mg/kg/day in a dose volume of 10 mL/kg. Animals were observed until euthanized and necropsied on Day 29 (10/sex/group) or 43 (5/sex from Groups 1 and 4). Toxicity was evaluated based on mortality, clinical observations, body weights, food consumption, ophthalmology, motor activity, functional observational battery, clinical pathology (clinical chemistry, hematology, coagulation and urinalysis), organ weights, anatomic (macroscopic or microscopic) pathology. Toxicokinetic animals (3/sex/Group 1; 6/sex/Groups 2, 3, and 4) were similarly dosed and bled on Day 1 and during Week 4 for toxicokinetic analysis.

[4] = test system: male Sprague Dawley rats; assay: 7-day forced swim test; format: in vivo
Method: Groups of, 6-7 week old, male Sprague Dawley rats were administered esketamine by intraperitoneal injection and their behavioral despair assessed by a forced swim test. The animals, in cohorts of 10, were administered either a single dose of 15 mg/kg esketamine, 7 daily doses of either 7.5 or 15 mg/kg esketamine or a vehicle control, and the test performed 30 minutes after dosing. Statistical evaluation was performed using an ordinary One-Way ANOVA, t Test and an Uncorrected Fisher's LSD comparisons test.

[5] = test system: healthy male and female subjects; assay: Single dose crossover study in healthy volunteers: treatment-emergent adverse events; format: in vivo, human; conditions: all treatments, 16 subjects
Excerpt: A total of 128 TEAEs (treatment-emergent adverse event) were reported by 15 of 16 (94%) subjects of which 79 TEAEs reported by 14 of 16 (88%) subjects were to be related to the study drug. Overall, a total of 14 of 128 TEAEs reported by 4 (25%) subjects were of moderate severity and 114 of 128 TEAEs reported by 15 (94%) subjects were of mild severity. […] The most frequently occurring adverse events (reported more than twice) were headache, dizziness, hypokinesia, feeling abnormal, fatigue, euphoric mood inappropriate affect, nausea and hyperhidrosis. Table 4 presents the frequency of the most frequently reported related TEAEs as a percentage of the subjects that experienced an adverse effect per treatment.

[6] = Pharmacokinetics of 40 mg oral esketamine in MDD participants treated with an antidepressant; format: in vivo, human; conditions: 40 mg oral esketamine hydrochloride once daily for 7 days, 15 MDD subjects
Method: An 18 subject in patient study to assess the safety, tolerability, and pharmacokinetics of 40 mg oral esketamine in MDD participants currently treated with an antidepressant drug was held. In an, up to, 35 day screening phase, the subjects were assessed for study eligibility and, if needed, washed out from disallowed drugs. During this period, it was also determined whether the subject's current dose of oral antidepressant medication had been stable for at least 4 weeks.

[7] = Domino (2010); cited from earlier work
[8] = test system: human peripheral blood lymphocytes (HPBL); remark: listed apart in the source
Method: The clastogenic potential of (S)-norketamine was evaluated in the in vitro mammalian chromosome aberration test using human peripheral blood lymphocytes (HPBL) in both the absence and presence of an induced metabolic activation system (the 9000 g supernatant [S9] microsomal fraction of liver homogenate from rats exposed to phenobarbital/5,6-benzoflavone).
The study was conducted in 2 phases, with a preliminary toxicity test used to determine the appropriate concentrations for the definitive chromosomal aberration assay. Water was used as a negative (vehicle) control. In both phases, the cells were treated for 3 and 21 hours in the absence of S9 mix and for 3 hours in the presence of S9 mix. The mitotic index was assessed for all cultures to determine cytotoxicity. Ten concentrations, ranging from 2.62 to 260.16 μg/mL, were evaluated in the preliminary toxicity test.

N[C@]1(c2ccccc2Cl)CCC[C@H](O)C1=O [(2S,6S)-OH-Norketamine, (2S,6S)-2-Amino-2-(2-chlorophenyl)-6-hydroxycyclohexanone]
t1/2, geometric mean [1]: 7.83 h

CN[C@]1(c2ccccc2Cl)CCCCC1=O [esketamine, (2S)-2-(2-Chlorophenyl)-2-(methylamino) cyclohexanone]
Cochran-Armitage test for dose response of structural aberrations [2]: positive for a dose response
induction of numerical chromosomal aberrations [2]: negative
induction of structural and numerical chromosomal aberrations [2]: negative
toxicity (≥45% reduction in MI relative to the vehicle control), preliminary toxicity test [2]: not observed at any dose
cytotoxicity (≥45% reduction in mitotic index relative to the vehicle control), definitive assay ([2]; non-activated 4- and 20-hour treatment, 30 to 238 μg/ml): not observed at any esketamine dose
exposure by sex after normalization for dose level differences [3]: males had lower exposures than females
antidepressant-like effect, continuous 7-day treatment vs single acute dose ([4]; same dose levels): stronger antidepressant-like effect than a single acute dose
effect on immobility time, acute treated rats ([4]; single dose of 15 mg/kg intraperitoneal, test 30 minutes after dosing): 42 % of control
total number of TEAEs reported [5]: 128
mean esketamine Cmax [6]: 11.82 ng/mL
AUC(0-t) ([6]; human, in vivo, read-out: mean esketamine AUC0-t): 35.6 ng·h/mL
psychotomimetic side effects compared with (R)-ketamine [7]: greater undesirable psychotomimetic side effects

N[C@]1(c2ccccc2Cl)CCCCC1=O [(S)-norketamine, (2S)-2-(2-Chlorophenyl)-2-(amino) cyclohexanone]
clastogenicity (structural and numerical chromosomal aberrations) [8]: non-clastogenic
